Laboratory results from patent US20150017667A1, “MEANS AND METHODS FOR ASSESSING LIVER DISORDERS” (BASF SE, priority 2012, published 2015).
Structures can show the parent of a compound that is named as a salt. Marks after values point to notes of the source that are not given here.

Test system: male rats
Test: 28-day repeated dose oral toxicity study (OECD 407) with GC-MS/LC-MS plasma metabolite profiling, male rats
Format: in vivo, rat
Conditions: plasma
Source text: Drinking water was also offered ad libitum.
The samples were centrifuged for generation of plasma.

## CC(C)(Oc1ccc(CCNC(=O)c2ccc(Cl)cc2)cc1)C(=O)O [Bezafibrate]
Day 7
  3-O-Methylsphingosine (d18:1), ratio versus control: 0.48*
  5-O-Methylsphingosine (d18:1), ratio versus control: 0.4*
  14-Methylhexadecanoic acid, ratio versus control: 0.93
  16-Methylheptadecanoic acid, ratio versus control: 0.29*
  17-Methyloctadecanoic acid, ratio versus control: 0.24*
  Arachidonic acid (C20:cis[5,8,11,14]4), ratio versus control: 0.26*
  Arginine, ratio versus control: 0.65*
  Ascorbic acid, ratio versus control: 1.54*
  Behenic acid (C22:0), ratio versus control: 0.44*
  Campesterol, ratio versus control: 0.24*
  Cholesterol, ratio versus control: 0.37*
  Choline plasmalogen (C18,C20:4), ratio versus control: 0.47*
  Choline plasmalogen No 01, ratio versus control: 0.87*
  Choline plasmalogen No 02, ratio versus control: 0.46*
  Choline plasmalogen No 03, ratio versus control: 0.49*
  Coenzyme Q10, ratio versus control: 0.46*
  Cytosine, ratio versus control: 0.89*
  Docosapentaenoic acid (C22:cis[7,10,13,16,19]5), ratio versus control: 0.43*
  Eicosanoic acid (C20:0), ratio versus control: 0.51*
  Glucose, ratio versus control: 1.54*
  Glycine, ratio versus control: 1.79*
  Heptadecanoic acid (C17:0), ratio versus control: 0.69*
  Isopalmitic acid (C16:0), ratio versus control: 0.53*
  Kynurenic acid, ratio versus control: 1.89*
  Lignoceric acid (C24:0), ratio versus control: 0.54*
  Lysophosphatidylcholine (C17:0), ratio versus control: 0.51*
  Lysophosphatidylcholine (C18:0), ratio versus control: 0.79*
  Lysophosphatidylcholine (C18:2), ratio versus control: 1.4*
  Lysophosphatidylethanolamine (C22:0), ratio versus control: 0.27*
  Lysophosphatidylethanolamine (C22:5), ratio versus control: 1.59*
  Mannose, ratio versus control: 1.32*
  Metanephrine, ratio versus control: 0.5
  Nervonic acid (C24:cis[15]1), ratio versus control: 0.4*
  Normetanephrine, ratio versus control: 0.6*
  Pantothenic acid, ratio versus control: 2.36*
  Phosphatidylcholine (C18:0,C20:3), ratio versus control: 0.48*
  Phosphatidylcholine (C18:0,C20:4), ratio versus control: 0.78*
  Phosphatidylcholine (C18:2,C20:4), ratio versus control: 0.65*
  Phosphatidylcholine No 02, ratio versus control: 0.35*
  Phosphatidylcholine No 04, ratio versus control: 0.23*
  Sphingomyelin (d18:1,C16:0), ratio versus control: 0.88*
  Sphingomyelin (d18:2,C16:0), ratio versus control: 0.72*
  Stearic acid (C18:0), ratio versus control: 0.42*
  Tricosanoic acid (C23:0), ratio versus control: 0.5*
  beta-Sitosterol, ratio versus control: 0.24*
  dihomo-gamma-Linolenic acid (C20:cis[8,11,14]3), ratio versus control: 3.63*
  erythro-Sphingosine, ratio versus control: 0.49*
  myo-Inositol-2-phosphate, lipid fraction, ratio versus control: 0.28*
  threo-Sphingosine, ratio versus control: 0.56*
  trans-4-Hydroxyproline, ratio versus control: 0.71*
Day 7 (Table 3a)
  Lysophosphatidylcholine (C18:1), ratio versus control: 1.44*
  Phosphatidylcholine (C16:0,C20:5), ratio versus control: 1.4*
Day 7 (Table 3b)
  Docosahexaenoic acid (C22:cis[4,7,10,13,16,19]6), ratio versus control: 0.25*
  Phosphatidylcholine (C18:0,C22:6), ratio versus control: 0.36*
  alpha-Tocopherol, ratio versus control: 0.75*
Day 14
  3-O-Methylsphingosine (d18:1), ratio versus control: 0.44*
  5-O-Methylsphingosine (d18:1), ratio versus control: 0.41*
  14-Methylhexadecanoic acid, ratio versus control: 0.89*
  16-Methylheptadecanoic acid, ratio versus control: 0.25*
  17-Methyloctadecanoic acid, ratio versus control: 0.24*
  Arachidonic acid (C20:cis[5,8,11,14]4), ratio versus control: 0.31*
  Arginine, ratio versus control: 0.59*
  Ascorbic acid, ratio versus control: 1.32*
  Behenic acid (C22:0), ratio versus control: 0.58*
  Campesterol, ratio versus control: 0.31*
  Cholesterol, ratio versus control: 0.48*
  Choline plasmalogen (C18,C20:4), ratio versus control: 0.5*
  Choline plasmalogen No 01, ratio versus control: 0.82*
  Choline plasmalogen No 02, ratio versus control: 0.52*
  Choline plasmalogen No 03, ratio versus control: 0.63*
  Coenzyme Q10, ratio versus control: 0.58*
  Cytosine, ratio versus control: 0.84
  Docosapentaenoic acid (C22:cis[7,10,13,16,19]5), ratio versus control: 0.62*
  Eicosanoic acid (C20:0), ratio versus control: 0.67*
  Glucose, ratio versus control: 1.29*
  Glycine, ratio versus control: 1.58*
  Heptadecanoic acid (C17:0), ratio versus control: 0.83*
  Isopalmitic acid (C16:0), ratio versus control: 0.53*
  Kynurenic acid, ratio versus control: 5.15*
  Lignoceric acid (C24:0), ratio versus control: 0.44*
  Lysophosphatidylcholine (C17:0), ratio versus control: 0.51*
  Lysophosphatidylcholine (C18:0), ratio versus control: 0.85*
  Lysophosphatidylcholine (C18:2), ratio versus control: 1.68*
  Lysophosphatidylethanolamine (C22:0), ratio versus control: 0.32*
  Lysophosphatidylethanolamine (C22:5), ratio versus control: 1.9*
  Mannose, ratio versus control: 1.34*
  Metanephrine, ratio versus control: 0.44*
  Nervonic acid (C24:cis[15]1), ratio versus control: 0.44*
  Normetanephrine, ratio versus control: 0.5*
  Pantothenic acid, ratio versus control: 2.3*
  Phosphatidylcholine (C18:0,C20:3), ratio versus control: 0.56*
  Phosphatidylcholine (C18:0,C20:4), ratio versus control: 0.78
  Phosphatidylcholine (C18:2,C20:4), ratio versus control: 0.66*
  Phosphatidylcholine No 02, ratio versus control: 0.37*
  Phosphatidylcholine No 04, ratio versus control: 0.25*
  Sphingomyelin (d18:1,C16:0), ratio versus control: 0.83*
  Sphingomyelin (d18:2,C16:0), ratio versus control: 0.67*
  Stearic acid (C18:0), ratio versus control: 0.45*
  Tricosanoic acid (C23:0), ratio versus control: 0.72*
  beta-Sitosterol, ratio versus control: 0.3*
  dihomo-gamma-Linolenic acid (C20:cis[8,11,14]3), ratio versus control: 4.4*
  erythro-Sphingosine, ratio versus control: 0.4*
  myo-Inositol-2-phosphate, lipid fraction, ratio versus control: 0.37*
  threo-Sphingosine, ratio versus control: 0.52*
  trans-4-Hydroxyproline, ratio versus control: 0.57*
Day 14 (Table 3a)
  Lysophosphatidylcholine (C18:1), ratio versus control: 1.92*
  Phosphatidylcholine (C16:0,C20:5), ratio versus control: 1.4*
Day 14 (Table 3b)
  Docosahexaenoic acid (C22:cis[4,7,10,13,16,19]6), ratio versus control: 0.25*
  Phosphatidylcholine (C18:0,C22:6), ratio versus control: 0.33*
  alpha-Tocopherol, ratio versus control: 0.77*
Day 28
  3-O-Methylsphingosine (d18:1), ratio versus control: 0.39*
  5-O-Methylsphingosine (d18:1), ratio versus control: 0.4*
  14-Methylhexadecanoic acid, ratio versus control: 0.83*
  16-Methylheptadecanoic acid, ratio versus control: 0.16*
  17-Methyloctadecanoic acid, ratio versus control: 0.17*
  Arachidonic acid (C20:cis[5,8,11,14]4), ratio versus control: 0.29*
  Arginine, ratio versus control: 0.62*
  Ascorbic acid, ratio versus control: 1.55*
  Behenic acid (C22:0), ratio versus control: 0.51*
  Campesterol, ratio versus control: 0.21*
  Cholesterol, ratio versus control: 0.43*
  Choline plasmalogen (C18,C20:4), ratio versus control: 0.51*
  Choline plasmalogen No 01, ratio versus control: 0.55*
  Choline plasmalogen No 02, ratio versus control: 0.49*
  Choline plasmalogen No 03, ratio versus control: 0.54*
  Coenzyme Q10, ratio versus control: 0.48*
  Cytosine, ratio versus control: 0.79*
  Docosapentaenoic acid (C22:cis[7,10,13,16,19]5), ratio versus control: 0.31*
  Eicosanoic acid (C20:0), ratio versus control: 0.52*
  Glucose, ratio versus control: 1.32*
  Glycine, ratio versus control: 1.95*
  Heptadecanoic acid (C17:0), ratio versus control: 0.52*
  Isopalmitic acid (C16:0), ratio versus control: 0.47*
  Kynurenic acid, ratio versus control: 2.04*
  Lignoceric acid (C24:0), ratio versus control: 0.44*
  Lysophosphatidylcholine (C17:0), ratio versus control: 0.36*
  Lysophosphatidylcholine (C18:0), ratio versus control: 0.86*
  Lysophosphatidylcholine (C18:2), ratio versus control: 1.33*
  Lysophosphatidylethanolamine (C22:0), ratio versus control: 0.18*
  Lysophosphatidylethanolamine (C22:5), ratio versus control: 1.29*
  Mannose, ratio versus control: 1.23*
  Metanephrine, ratio versus control: 0.55*
  Nervonic acid (C24:cis[15]1), ratio versus control: 0.39*
  Normetanephrine, ratio versus control: 0.78*
  Pantothenic acid, ratio versus control: 3.51*
  Phosphatidylcholine (C18:0,C20:3), ratio versus control: 0.57*
  Phosphatidylcholine (C18:0,C20:4), ratio versus control: 0.75*
  Phosphatidylcholine (C18:2,C20:4), ratio versus control: 0.56*
  Phosphatidylcholine No 02, ratio versus control: 0.47*
  Phosphatidylcholine No 04, ratio versus control: 0.24*
  Sphingomyelin (d18:1,C16:0), ratio versus control: 0.71*
  Sphingomyelin (d18:2,C16:0), ratio versus control: 0.49*
  Stearic acid (C18:0), ratio versus control: 0.39*
  Tricosanoic acid (C23:0), ratio versus control: 0.54*
  beta-Sitosterol, ratio versus control: 0.2*
  dihomo-gamma-Linolenic acid (C20:cis[8,11,14]3), ratio versus control: 3.24*
  erythro-Sphingosine, ratio versus control: 0.43*
  myo-Inositol-2-phosphate, lipid fraction, ratio versus control: 0.38*
  threo-Sphingosine, ratio versus control: 0.55*
  trans-4-Hydroxyproline, ratio versus control: 0.72*
Day 28 (Table 3a)
  Lysophosphatidylcholine (C18:1), ratio versus control: 1.22*
  Phosphatidylcholine (C16:0,C20:5), ratio versus control: 1.21*
Day 28 (Table 3b)
  Docosahexaenoic acid (C22:cis[4,7,10,13,16,19]6), ratio versus control: 0.14*
  Phosphatidylcholine (C18:0,C22:6), ratio versus control: 0.27*
  alpha-Tocopherol, ratio versus control: 0.64*

## CN(CCOc1ccc(CC2SC(=O)NC2=O)cc1)c1ccccn1 (stereo not drawn) [Rosiglitazone maleate]
Day 7
  Alanine, ratio versus control: 0.78*
  Citrulline, ratio versus control: 0.88*
  Isoleucine, ratio versus control: 0.7*
  Leucine, ratio versus control: 0.74*
  Lysine, ratio versus control: 0.78*
  Ornithine, ratio versus control: 0.85*
  Phenylalanine, ratio versus control: 0.85*
  Phosphate (inorganic and organic phosphates), ratio versus control: 0.76*
  Phosphatidylcholine (C16:0,C16:0), ratio versus control: 1.14*
  Proline, ratio versus control: 0.89*
  Valine, ratio versus control: 0.74*
Day 7 (Table 4a)
  Phosphatidylcholine (C16:0,C20:5), ratio versus control: 1.07*
Day 7 (Table 4b)
  Docosahexaenoic acid (C22:cis[4,7,10,13,16,19]6), ratio versus control: 0.57*
  Phosphatidylcholine (C18:0,C22:6), ratio versus control: 0.87*
  Threonine, ratio versus control: 0.74*
Day 14
  Alanine, ratio versus control: 0.83*
  Citrulline, ratio versus control: 0.79
  Isoleucine, ratio versus control: 0.72*
  Leucine, ratio versus control: 0.66*
  Lysine, ratio versus control: 0.77*
  Ornithine, ratio versus control: 0.86*
  Phenylalanine, ratio versus control: 0.84*
  Phosphate (inorganic and organic phosphates), ratio versus control: 0.66*
  Phosphatidylcholine (C16:0,C16:0), ratio versus control: 1.22*
  Proline, ratio versus control: 0.88*
  Valine, ratio versus control: 0.74*
Day 14 (Table 4a)
  Phosphatidylcholine (C16:0,C20:5), ratio versus control: 1.11*
Day 14 (Table 4b)
  Docosahexaenoic acid (C22:cis[4,7,10,13,16,19]6), ratio versus control: 0.66*
  Phosphatidylcholine (C18:0,C22:6), ratio versus control: 0.9*
  Threonine, ratio versus control: 0.74*
Day 28
  Alanine, ratio versus control: 0.88*
  Citrulline, ratio versus control: 0.86*
  Isoleucine, ratio versus control: 0.78*
  Leucine, ratio versus control: 0.78*
  Lysine, ratio versus control: 0.86*
  Ornithine, ratio versus control: 0.78*
  Phenylalanine, ratio versus control: 0.81*
  Phosphate (inorganic and organic phosphates), ratio versus control: 0.69*
  Phosphatidylcholine (C16:0,C16:0), ratio versus control: 1.07
  Proline, ratio versus control: 0.93*
  Valine, ratio versus control: 0.84*
Day 28 (Table 4a)
  Phosphatidylcholine (C16:0,C20:5), ratio versus control: 1.06
Day 28 (Table 4b)
  Docosahexaenoic acid (C22:cis[4,7,10,13,16,19]6), ratio versus control: 0.83*
  Phosphatidylcholine (C18:0,C22:6), ratio versus control: 0.84*
  Threonine, ratio versus control: 0.87*
